Data reported in patent US4738986A, “N-(3-phenoxycinnamyl)acetohydroxamic acid” (Burroughs Wellcome Co., priority 1985, dated 1988).

Legend:
[1] = molecular target: T1, 5-lipoxygenase (LO) (Homo sapiens, UniProt P09917); assay: In vitro inhibition of 5-lipoxygenase (LO): leukotriene B4 from arachidonic acid in leukocyte homogenate, radioimmunoassay; format: biochemical; conditions: volunteers' blood, 5 μM arachidonic acid, 37°, 5 minutes, leukotriene B4 RIA
T1 construct: The leukocytes were homogenised and 5 μM arachidonic acid added; endogenous in cells; host or cells: leukocytes from blood of normal aspirin-free volunteers, separated from red cells and platelets by centrifugation, homogenised
T1 sequence (P09917 1-674): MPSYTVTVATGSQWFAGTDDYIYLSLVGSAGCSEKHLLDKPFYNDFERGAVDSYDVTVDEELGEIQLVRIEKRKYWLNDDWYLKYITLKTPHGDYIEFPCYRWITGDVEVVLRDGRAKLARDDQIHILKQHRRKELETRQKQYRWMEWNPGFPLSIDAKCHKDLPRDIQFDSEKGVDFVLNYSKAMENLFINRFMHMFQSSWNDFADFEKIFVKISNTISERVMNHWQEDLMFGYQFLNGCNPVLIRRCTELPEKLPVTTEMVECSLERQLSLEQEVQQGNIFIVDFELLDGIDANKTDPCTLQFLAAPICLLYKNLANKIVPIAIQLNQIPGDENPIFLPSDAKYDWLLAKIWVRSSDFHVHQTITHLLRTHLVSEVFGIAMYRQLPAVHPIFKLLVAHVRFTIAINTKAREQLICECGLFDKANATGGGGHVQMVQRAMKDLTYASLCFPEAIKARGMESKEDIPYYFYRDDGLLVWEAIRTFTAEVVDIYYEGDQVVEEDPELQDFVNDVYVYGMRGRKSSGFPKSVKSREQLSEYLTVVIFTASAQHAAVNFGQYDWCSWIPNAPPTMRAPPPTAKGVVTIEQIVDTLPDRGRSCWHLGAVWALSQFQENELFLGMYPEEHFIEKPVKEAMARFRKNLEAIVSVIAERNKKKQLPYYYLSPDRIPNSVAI
Experimental: (§1) In vitro inhibition of 5-lipoxygenase (LO) and Cyclooxygenase (CO)
(§2) Blood from normal aspirin-free volunteers was centrifuged to separate leukocytes from red cells and platelets. The leukocytes were homogenised and 5 μM arachidonic acid added, followed by incubation at 37° for 5 minutes. The reaction was stopped by boiling. Radioimmunoassay was conducted for leukotriene B4 (an LO product) and […] (a CO product). Results were calculated as IC50 μM activity against each enzyme and as listed below.

[2] = molecular target: T2, Cyclooxygenase (CO) (Homo sapiens, UniProt P23219); assay: In vitro inhibition of cyclooxygenase (CO): thromboxane release from arachidonic acid in leukocyte homogenate, radioimmunoassay; format: biochemical; conditions: volunteers' blood, 5 μM arachidonic acid, 37°, 5 minutes, thromboxane B4 RIA
T2 construct: The leukocytes were homogenised and 5 μM arachidonic acid added; endogenous in cells; host or cells: leukocytes from blood of normal aspirin-free volunteers, separated from red cells and platelets by centrifugation, homogenised
T2 sequence (P23219 24-599): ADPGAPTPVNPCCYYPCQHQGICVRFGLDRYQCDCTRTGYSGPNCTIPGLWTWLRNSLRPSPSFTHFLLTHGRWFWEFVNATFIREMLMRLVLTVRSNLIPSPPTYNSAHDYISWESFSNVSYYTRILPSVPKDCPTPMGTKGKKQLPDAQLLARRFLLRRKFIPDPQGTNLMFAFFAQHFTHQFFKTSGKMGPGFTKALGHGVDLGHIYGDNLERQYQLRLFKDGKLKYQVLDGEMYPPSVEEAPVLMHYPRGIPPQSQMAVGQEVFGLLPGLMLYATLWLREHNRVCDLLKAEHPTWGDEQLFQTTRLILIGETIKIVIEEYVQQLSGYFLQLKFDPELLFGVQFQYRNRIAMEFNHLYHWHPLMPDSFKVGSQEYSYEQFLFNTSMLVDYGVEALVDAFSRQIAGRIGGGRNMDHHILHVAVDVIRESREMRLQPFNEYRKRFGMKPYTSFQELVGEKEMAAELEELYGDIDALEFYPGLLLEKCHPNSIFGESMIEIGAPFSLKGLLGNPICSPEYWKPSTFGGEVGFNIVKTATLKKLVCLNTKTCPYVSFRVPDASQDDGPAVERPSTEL
Experimental: as §1, §2

- IC50 [1]: < 0.1 µM
- IC50 [2]: 3 µM
Substance: 3-Phenoxy-N-methylcinnamohydroxamic Acid [Example 1]
